Data as given in PMC6079455, “Discovery of Novel Caeridins from the Skin Secretion of the Australian White's Tree Frog, Litoria caerulea” (International Journal of Genomics, 2018).
Ends that are not written are not given here.

Key:
S. aureus = assay: Membrane permeability on S. aureus (SYTOX Green); type: cell-based, Staphylococcus aureus; conditions: 2 h, 37°C, 1 × 10^8 CFU/ml, relative to 70% isopropanol
Experimental: The cell membrane permeability of S. aureus was tested with SYTOX Green Nucleic Acid Stain (Life Technologies, Carlsbad, CA, USA). The log-phase S. aureus was pelleted and suspended in 5% TSB in 0.85% NaCl solution to achieve 1 × 10^8 CFU/ml cells which was then treated with peptide solutions at 37°C for 2 h. The maximum membrane-compromised S. aureus was produced by 70% isopropanol treatment. Subsequently, cells were mixed with 5 μM SYTOX Green stain and incubated in the dark for 10 min. The fluorescence was measured in a 37°C Synergy HT plate reader (Biolise BioTek ELx808, Winooski, VT, USA) at excitation and emission wavelengths of 480 nm and 528 nm, respectively. The membrane permeability was calculated as (1) Membrane permeability%=F−F0/F1−F0×100%, where F represents the processed fluorescence intensity with peptide treatments, F0 represents the processed fluorescence intensity of untreated S. aureus, and F1 represents the processed fluorescence intensity in the maximum membrane-compromised S. aureus (70% isopropanol-treated). The fluorescence intensities of background were subtracted prior to calculation.

E. coli = assay: Membrane permeability on E. coli (ONPG / β-galactosidase); type: cell-based, Escherichia coli; conditions: ONPG hydrolysis, absorbance 420 nm, 0-30 min, 37°C, 1 × 10^8 CFU/ml, PBS pH 7.4
Experimental: The membrane permeabilsation of E.coli was determined by measuring the release of β-galactosidase activity from E. coli into the culture medium with ONPG as the substrate. The log-phase E. coli was grown in MHB medium containing 2% lactose at 37°C, and the cells were pelleted. The cell pellets were suspended in 10 mM PBS (pH 7.4) containing 1.5 mM ONPG and diluted to 1 × 10^8 CFU/ml. Aliquots of cells were incubated with different concentrations of peptides at 37°C. Permeabilisation was measured at 420 nm every 2 min from 0 to 30 min, which reflects ONPG influx into the cells working as an indicator of the permeability of the tested peptides.

GLFDIVGKLLGGLGL-NH2 [Caeridin-a1]
membrane permeability of S. aureus at MBC (S. aureus; peptide at its MBC): massively compromised | membrane permeability of S. aureus at MIC (S. aureus; peptide at its MIC): remained intact | membrane permeabilisation of E. coli at MIC and MBC (E. coli): induced inner membrane permeabilisation within 30 min
